Measurements: patent US6297237A, “Process for the preparation of aminocarbonyl derivatives of geneseroline having selective brain anticholinesterase activity” (priority 1997, dated 2001)
Counter-ions that a name gives are not always drawn. Like-named read-outs stand apart in the source and are kept apart here.

Columns and labels:
brain AChE [1] = target: T1, brain AChE (Rattus norvegicus, UniProt P37136); assay: Rat brain AChE inhibition ex vivo after oral administration (Table 1); format: in vivo; conditions: for ED50: read-out: ED50 (dose of compound to inhibit 50% of the enzyme), p.o., brain AChE, C.L. 95% given; for inhibition at 3 mg/kg: 3 mg/kg p.o.; for Potency relative to CHF 2060: inhibition of AChE after oral administration in rat
T1 construct: from tissue; host or cells: rat brain (male SD rats), homogenate in Triton/phosphate buffer, supernatant
T1 sequence (P37136 32-614): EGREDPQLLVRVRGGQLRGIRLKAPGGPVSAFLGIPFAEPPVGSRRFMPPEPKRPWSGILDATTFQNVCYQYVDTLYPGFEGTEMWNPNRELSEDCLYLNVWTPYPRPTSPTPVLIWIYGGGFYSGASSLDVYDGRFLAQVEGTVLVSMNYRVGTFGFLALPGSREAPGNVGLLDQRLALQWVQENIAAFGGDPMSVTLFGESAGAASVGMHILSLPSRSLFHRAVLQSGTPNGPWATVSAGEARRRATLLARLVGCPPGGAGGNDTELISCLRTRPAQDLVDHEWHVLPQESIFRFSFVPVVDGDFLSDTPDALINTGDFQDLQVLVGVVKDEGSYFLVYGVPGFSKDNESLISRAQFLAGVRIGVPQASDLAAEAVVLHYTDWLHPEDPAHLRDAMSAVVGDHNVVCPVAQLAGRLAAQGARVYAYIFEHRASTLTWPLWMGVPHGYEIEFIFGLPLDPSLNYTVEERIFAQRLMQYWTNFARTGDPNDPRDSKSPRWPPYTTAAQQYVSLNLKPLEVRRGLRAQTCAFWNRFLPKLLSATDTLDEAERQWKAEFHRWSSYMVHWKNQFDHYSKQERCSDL
Experimental: (§1) In a preferred embodiment of the present invention, compounds CHF 2819, CHF 2957, CHF 2822 were evaluated for their enzymatic inhibition potency and selectivity of action through a series of parameters in comparison with n-heptylaminocarbonylgeneseroline hydrochloride (CHF2060).
(§2) Male SD rats weighing 150-200 g were split into groups of 8 animals each, depending on the treatment with the different substances, which were orally administered in distilled water, at a volume of 2 ml/kg. After 2 hours from the administration, the animals were sacrificed as to take their brains. Brain tissue was homogenized in a […] solution in 0.1 M phosphate buffer at pH 8. After 15 minutes centrifugation, at 4° C., the supernatant was separated and AChE was determined on it with the method described by ElIman G. L. et al. (Biochem Pharmacol. 7, 88-95, 1961). For each treatment enzyme inhibition percent was determined against controls (animals treated with distilled water only).

brain AChE [2] = target: T1, brain AChE; assay: Inhibition kinetics of brain AChE after oral administration (Table 2); format: in vivo; conditions: for selectivity index*: Brain AUC/Heart AUC; for selectivity index* / brain AUC (% inhib · xh) / inhibition at 9 mg/kg: p.o. at 1/7 LD50: CHF 2060 10, CHF 2819 1.3, CHF 2822 2.5, CHF 2957 9 mg/kg, rat; for brain AUC (% inhib · xh) / inhibition at 9 mg/kg: 1, 4, 16 h; for inhibition at 9 mg/kg: po, read-out: brain AChE maximum % inhibition
Experimental: as §1, §2
(§3) Another series of experiments was performed in order to determine inhibition kinetics of brain and heart AChE after 1, 4 and 16 hours from administration of each tested substance. Enzyme was assayed on tissue homogenates similarly to what above described. […] Area Under Curve (AUC) was calculated by means of the enzymatic inhibition curve, for brain and heart tissue, related to the three test times.

heart AChE = assay: Inhibition kinetics of heart AChE after oral administration (Table 2); format: in vivo; conditions: p.o. at 1/7 LD50: CHF 2060 10, CHF 2819 1.3, CHF 2822 2.5, CHF 2957 9 mg/kg; 1, 4, 16 h; rat
Experimental: as §1, §2, §3

erythrocyte AChE = target: T2, erythrocyte AChE (Homo sapiens, UniProt P22303); assay: In vitro inhibition of erythrocyte AChE (Table 3); format: biochemical; conditions: for IC50: erythrocyte AChE, n = 4-8, read-out: AChE IC50 (μM) ± s.e.; for S.I.: selectivity index (IC50 BuChE/IC50 AChE)
T2 construct: from tissue
T2 sequence (P22303 other isoform, or with tags, fused parts or gaps): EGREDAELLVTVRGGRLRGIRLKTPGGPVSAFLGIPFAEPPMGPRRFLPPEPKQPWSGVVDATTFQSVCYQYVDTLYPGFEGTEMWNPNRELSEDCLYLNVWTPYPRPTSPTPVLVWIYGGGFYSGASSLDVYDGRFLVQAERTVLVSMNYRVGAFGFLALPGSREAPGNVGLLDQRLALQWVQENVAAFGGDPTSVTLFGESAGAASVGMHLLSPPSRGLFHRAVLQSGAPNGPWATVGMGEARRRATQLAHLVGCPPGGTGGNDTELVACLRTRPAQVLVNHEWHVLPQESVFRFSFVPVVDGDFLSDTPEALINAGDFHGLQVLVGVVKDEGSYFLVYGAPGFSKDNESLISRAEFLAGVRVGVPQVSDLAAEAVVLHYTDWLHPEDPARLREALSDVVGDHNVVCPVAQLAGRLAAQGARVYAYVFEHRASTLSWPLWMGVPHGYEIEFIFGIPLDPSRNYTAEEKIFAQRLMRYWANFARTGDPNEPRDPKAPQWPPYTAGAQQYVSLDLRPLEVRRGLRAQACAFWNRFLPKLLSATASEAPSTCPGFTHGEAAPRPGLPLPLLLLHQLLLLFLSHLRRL

human plasma BuChE = target: T3, human plasma BuChE (Homo sapiens, UniProt P06276); assay: In vitro inhibition of human plasma BuChE (Table 3); format: biochemical; conditions: for IC50: human plasma BuChE, n = 4-8, read-out: BuChE IC50 (μM) ± s.e.
T3 construct: human plasma BuChE; from tissue; host or cells: human plasma
T3 sequence (P06276 29-602): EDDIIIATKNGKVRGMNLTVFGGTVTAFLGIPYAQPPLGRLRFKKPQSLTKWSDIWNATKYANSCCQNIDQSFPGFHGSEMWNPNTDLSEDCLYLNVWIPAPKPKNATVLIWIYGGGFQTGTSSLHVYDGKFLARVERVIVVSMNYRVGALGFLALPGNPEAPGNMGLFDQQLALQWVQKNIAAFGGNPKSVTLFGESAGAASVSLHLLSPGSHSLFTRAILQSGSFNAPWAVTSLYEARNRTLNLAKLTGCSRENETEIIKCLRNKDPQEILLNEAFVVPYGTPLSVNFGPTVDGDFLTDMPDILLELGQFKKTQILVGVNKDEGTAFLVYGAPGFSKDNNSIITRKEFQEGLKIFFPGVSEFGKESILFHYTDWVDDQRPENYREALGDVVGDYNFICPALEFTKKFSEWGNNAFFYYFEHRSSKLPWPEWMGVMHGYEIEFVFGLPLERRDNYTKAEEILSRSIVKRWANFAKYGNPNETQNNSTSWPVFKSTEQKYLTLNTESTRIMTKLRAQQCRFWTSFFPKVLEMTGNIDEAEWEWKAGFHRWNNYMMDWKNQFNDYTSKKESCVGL

[3] = test system: brain acetylcholinesterase (AChE); conditions: European patent 0599890; cited from earlier work

Structure (SMILES) | ED50 (brain AChE [1]; po, rat, 2 h) [mg/kg] | inhibition at 3 mg/kg (brain AChE [1]; rat, po, 2 h, SD rats) [%] | selectivity index* (brain AChE [2]) | brain AUC (% inhib · xh) (brain AChE [2]) | inhibition at 9 mg/kg (brain AChE [2]) [%] | Heart AChE maximum % inhibition (heart AChE) [%] | Heart AUC (% inhib · xh) (heart AChE) | IC50 (erythrocyte AChE; in vitro) [µM] | S.I. (erythrocyte AChE) | IC50 (human plasma BuChE) [µM] | Potency relative to CHF 2060 (brain AChE [1]) [times] | Potency order (*) (brain AChE [1]; rat p.o., CHF 2060 = 1) | selectivity AChE versus BuChE (in words) (erythrocyte AChE; in vitro) | further results
CCCCCCCNC(=O)Oc1ccc2c(c1)[C@]1(C)CCN(C)OC1N2C (stereo partly shown) [CHF 2060, n-heptylaminocarbonylgeneseroline hydrochloride, reference compound] | 13.2 | 8 | 0.6 | 252 | 20 | 41 | 450 | 0.85 ± 0.08 | 0.005 | 0.005 ± 0.0007 | – | – | – | Potency order (*) (brain AChE [1]): 1; inhibition at 10 mg/kg (brain AChE [1]; rat, po, 10 mg/kg p.o., 2 h, SD rats): 29%; inhibition at 30 mg/kg (brain AChE [1]; rat, po, 30 mg/kg p.o., 2 h, SD rats): 60%; BuChE inhibition relative to AChE (in words) (human plasma BuChE): definitely more potent in inhibiting BuChE, rather than AChE; brain acetylcholinesterase inhibition, duration (in words) [3]: inhibitor of brain acetylcholinesterase characterised by a long action
CCc1ccccc1NC(=O)Oc1ccc2c(c1)[C@]1(C)CCN(C)OC1N2C (stereo partly shown) [CHF 2819, n-(2-ethylphenyl)aminocarbonylgeneseroline hydrochloride] | 1.5 | – | 9.7 | 348 | – | 4 | 36 | 0.48 ± 0.06 | 115 | 55.2 ± 6.43 | 8 | 8 | favourable "in vitro" selectivity on AChE with respect to BuChE | inhibition at 0.4 mg/kg (brain AChE [1]; rat, po, 0.4 mg/kg p.o., 2 h, SD rats): 9%; inhibition at 1.3 mg/kg (brain AChE [1]; rat, po, 1.3 mg/kg p.o., 2 h, SD rats): 34%; inhibition at 3.7 mg/kg (brain AChE [1]; rat, po, 3.7 mg/kg p.o., 2 h, SD rats): 55%; in vivo selectivity in inhibiting brain AChE (in words) (brain AChE [2]; brain versus heart/peripheral): "in vivo" selectivity in inhibiting brain AChE; duration of action (in words) (brain AChE [2]; in vivo): good duration of action; selectivity on AChE (erythrocyte AChE; in vitro, AChE versus BuChE, from selectivity index): 115 times
Cc1ccccc1NC(=O)Oc1ccc2c(c1)[C@]1(C)CCN(C)OC1N2C (stereo partly shown) [CHF 2822, n-(2-methylphenyl)aminocarbonylgeneseroline hydrochloride] | 1.6 | – | 3.9 | 379 | – | 9 | 96 | 2.01 ± 0.08 | 0.09 | 0.18 ± 0.01 | 7 | 7 | slightly less selective | inhibition at 0.8 mg/kg (brain AChE [1]; rat, po, 0.8 mg/kg p.o., 2 h, SD rats): 25%; inhibition at 2.5 mg/kg (brain AChE [1]; rat, po, 2.5 mg/kg p.o., 2 h, SD rats): 46%; inhibition at 7.5 mg/kg (brain AChE [1]; rat, po, 7.5 mg/kg p.o., 2 h, SD rats): 68%
Cc1cccc(NC(=O)Oc2ccc3c(c2)[C@]2(C)CCN(C)OC2N3C)c1 (stereo partly shown) [CHF 2957, n-(3-methylphenyl)aminocarbonylgeneseroline hydrochloride] | 4.1 | 21 | 4.7 | 585 | 62 | 13 | 125 | 4.2 ± 0.29 | 32 | 134 ± 9.7 | 3 | 3 | good selectivity | inhibition at 6 mg/kg (brain AChE [1]; rat, po, 6 mg/kg p.o., 2 h, SD rats): 56%; inhibition at 9 mg/kg (brain AChE [1]; rat, po, 9 mg/kg p.o., 2 h, SD rats): 67%
CNC(=O)Oc1ccc2c(c1)[C@]1(C)CCN(C)[C@@H]1N2C [Physostigmine, reference compound] | – | – | – | – | – | – | – | – | 0.27 | – | – | – | – | –
CCN(C)C(=O)Oc1cccc([C@H](C)N(C)C)c1 [SDZ-ENA 713, reference compound] | – | – | – | – | – | – | – | – | 0.007 | – | – | – | – | AChE affinity / activity (in words) (erythrocyte AChE; in vitro, evaluated as IC50): less active than other products
